Target: 11β-HSD1 (Homo sapiens (Human), UniProt P28845)
Assay: 11β-HSD1 inhibiting activity, HTRF assay with human microsomal fractions
Type: biochemical
Details: 160 nM cortisone, 200 μM NADPH, 2 h at 37° C.
Procedure: The inhibiting activity of 11β-HSD1 derived from microsomal fractions was measured using the HTRF assay (62CO2PEB, Cisbio). […] Europium (Eu^3+) cryptate and XL665-conjugated cortisol were then added to each well and incubated for an additional 2 h at room temperature. The Cortisol concentration was calculated u sing a calibration curve. The IC50 values were calculated from dose response curves using GraphPad Prism software.

Chain of 11β-HSD1 (P28845 whole entry): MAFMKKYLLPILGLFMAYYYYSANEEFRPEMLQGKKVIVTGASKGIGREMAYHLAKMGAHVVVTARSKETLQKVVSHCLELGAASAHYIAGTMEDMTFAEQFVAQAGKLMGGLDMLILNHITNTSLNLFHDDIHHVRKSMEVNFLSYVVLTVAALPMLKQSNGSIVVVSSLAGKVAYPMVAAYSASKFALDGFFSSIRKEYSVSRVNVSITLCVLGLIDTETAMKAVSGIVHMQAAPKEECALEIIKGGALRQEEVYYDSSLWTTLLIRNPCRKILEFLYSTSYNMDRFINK

Row | SMILES | IC50
1 | CC(C)(CNS(=O)(=O)c1cccc(Cl)c1)C(=O)NC1C2CC3CC1CC(C(N)=O)(C3)C2 (stereo not drawn) [Example 67, E-4-(3-(3-chlorobenzenesulfonylamino)-2,2-dimethylpropanamido)adamantan-1-carboxylic acid amide] | 7.1 nM
2 | NC(=O)C12CC3CC(C1)C(NC(=O)C1(CNS(=O)(=O)c4cccc(F)c4F)CC1)C(C3)C2 (stereo not drawn) [Example 11, E-4-[1-((2,3-difluoro-benzenesulfonylamino)methyl)cyclopropanecarboxamido]-adamantan-1-carboxylic acid amide] | 10.4 nM
3 | Cc1c(Cl)cccc1S(=O)(=O)NCC1(C(=O)NC2C3CC4CC(C3)CC2C4)CC1 (stereo not drawn) [Example 1, N-(adamantan-2-yl)-1-[(3-chloro-2-methylbenzenesulfonylamino)methyl]cyclopropanecarboxamide] | 14.2 nM
4 | NC(=O)C12CC3CC(C1)C(NC(=O)c1cccc(NS(=O)(=O)c4ccc(F)cc4)c1)C(C3)C2 (stereo not drawn) [Example 94, E-4-[3-(4-fluoro-benzenesulfonylamino)-benzamido]-adamantan-1-carboxylic acid amide] | 75.7 nM
5 | NC(=O)C12CC3CC(C1)C(NC(=O)c1cccc(NS(=O)(=O)c4ccccc4C(F)(F)F)c1F)C(C3)C2 (stereo not drawn) [Example 125, E-4-[2-fluoro-3-(2-(trifluoromethyl)benzenesulfonylamino)benzamido]adamantan-1-carboxylic acid amide] | 11.6 nM
6 | NC(=O)C12CC3CC(C1)C(NC(=O)c1cccc(NS(=O)(=O)c4cccc(Cl)c4)c1F)C(C3)C2 (stereo not drawn) [Example 132, E-4-[2-fluoro-3-(3-chlorobenzenesulfonylamino)benzamido]adamantan-1-carboxylic acid amide] | 148 nM
7 | Cc1cc(S(=O)(=O)NCC2(C(=O)NC3C4CC5CC3CC(C(N)=O)(C5)C4)CC2)c(Cl)cc1Cl (stereo not drawn) [Example 14, E-4-[1-((2,4-dichloro-5-methyl-benzenesulfonylamino)methyl)cyclopropanecarboxamido]-adamantan-1-carboxylic acid amide] | 13.3 nM
8 | NC(=O)C12CC3CC(C1)C(NC(=O)C1(NC(=O)c4cccc(F)c4F)CC1)C(C3)C2 (stereo not drawn) [Example 59] | 11.2 nM
9 | Cc1nc(C)c(S(=O)(=O)Nc2cccc(C(=O)NC3C4CC5CC3CC(C(N)=O)(C5)C4)c2)s1 (stereo not drawn) [Example 107] | 60.3 nM
10 | NC(=O)C12CC3CC(C1)C(NC(=O)c1cccc(NS(=O)(=O)c4c(F)cccc4F)c1)C(C3)C2 (stereo not drawn) [Example 123, E-4-[3-(2,6-difluoro-benzenesulfonylamino)-benzamido]-adamantan-1-carboxylic acid amide] | 12.8 nM

These reach a lower IC50. Values come first.

Row | IC50 | SMILES
11 | 5 nM | NC(=O)C12CC3CC(C1)C(NC(=O)c1cccc(NS(=O)(=O)c4c(Cl)cc(Cl)cc4Cl)c1)C(C3)C2 (stereo not drawn) [Example 117, E-4-[3-(2,4,6-trichloro-benzenesulfonylamino)-benzamido]-adamantan-1-carboxylic acid amide]
12 | 1.9 nM | CN(c1cccc(C(=O)NC2C3CC4CC2CC(C(N)=O)(C4)C3)c1)S(=O)(=O)c1ccccc1C(F)(F)F (stereo not drawn) [Example 99, E-4-(3-[(2-trifluoromethyl-benzenesulfonyl)-methylamino]-benzamido)-adamantan-1-carboxylic acid amide]
13 | 2.6 nM | NC(=O)C12CC3CC(C1)C(NC(=O)C1(CNS(=O)(=O)c4cccc(Cl)c4)CC1)C(C3)C2 (stereo not drawn) [Example 7, E-4-[1-((3-chloro-benzenesulfonylamino)methyl)cyclopropanecarboxamido]-adamantan-1-carboxylic acid amide]
14 | 2.8 nM | Cc1cccc(F)c1S(=O)(=O)N(C)CC1(C(=O)NC2C3CC4CC2CC(C(N)=O)(C4)C3)CC1 (stereo not drawn) [Example 13, E-4-[1-((2-fluoro-N,6-dimethyl-benzenesulfonylamino)methyl)cyclopropanecarboxamido]-adamantan-1-carboxylic acid amide]
15 | 2.5 nM | Cc1cccc(F)c1S(=O)(=O)NCC1(C(=O)NC2C3CC4CC2CC(C(N)=O)(C4)C3)CC1 (stereo not drawn) [Example 10, E-4-[1-((2-fluoro-6-methyl-benzenesulfonylamino)methyl)cyclopropanecarboxamido]-adamantan-1-carboxylic acid amide]
